Reference: article PMC6681697, “One-Step ^18F-Labeling and Preclinical Evaluation of Prostate-Specific Membrane Antigen Trifluoroborate Probes for Cancer Imaging” (Journal of Nuclear Medicine, 2019)

Assays:
LNCaP xenografts = experiment: Ex vivo biodistribution and blocking studies in mice bearing LNCaP xenografts; conditions: for tumor uptake: LNCaP tumor
Description: Imaging and biodistribution experiments were performed using NODSCID IL2RγKO male mice. All experiments were conducted according to the guidelines established by the Canadian Council on Animal Care and approved by the Animal Ethics Committee of the University of British Columbia. Mice were anesthetized by inhalation with 2% isoflurane in oxygen and implanted subcutaneously with 1 × 10^7 LNCaP cells behind the left shoulder. The mice were imaged or used in biodistribution studies once the tumor reached 5–8 mm in diameter (5–6 wk).
For biodistribution and blocking studies, the mice were injected with 1–3 MBq of radiotracer. At 60 min, the mice were anesthetized with 2% isoflurane inhalation and euthanized by CO2 inhalation. Blood was withdrawn by cardiac puncture, and the organs and tissues of interest were collected, weighed, and counted using an automatic γ-counter (PerkinElmer). Uptake values were expressed as the percentage of the injected dose per gram of tissue (%ID/g).
A standard 1-way ANOVA was performed to determine whether statistically significant differences in tumor uptake occurred between radiotracers. Each radiotracer was compared with ^18F-DCFPyL using the Dunnett test (a many-to-one t test comparison). This analysis was also performed for kidney and blood activity and for tumor-to-blood and tumor-to-muscle ratios. Reported P values were adjusted for multiple comparisons. The analysis was performed using Prism 8 (GraphPad). […]
Statistical analyses were performed using GradPad prism 7. Multiple t tests were performed to compare biodistribution in unblocked and blocked mice, multiple comparisons were corrected using the Holm-Sidak method. The difference was considered statistically significant when p value was < 0.05.
Supplemental Table 1 – Complete biodistribution study for compounds [18F]1–3 […]
Tissue 1h 1h blocked 1h 1h blocked 1h 1h blocked
(%ID/g) n = 8 n = 4 n = 6 n = 4 n = 8 n = 5 […]
(1 picture or pasted object on this page, not shown here)

[1] = Distribution coefficient (LogD7.4), shake flask method; type: physicochemical; conditions: n-octanol / phosphate buffer 0.1 M pH 7.4; n = 3
Description: LogD7.4 values were measured using the shake flask method. Briefly, an aliquot of ^18F-labeled tracer was added to a vial containing 2.5 mL of n-octanol and 2.5 mL of phosphate buffer (0.1 M, pH 7.4). The mixture was vortexed for 2 min and then centrifuged at 3,000g for 10 min. A sample of the n-octanol (0.1 mL) and buffer (0.1 mL) layers was counted using a γ-counter. Values of LogD7.4 were calculated using the following equation: LogD7.4 = log10 [(counts in n-octanol phase)/(counts in buffer phase)].

PSMA = biological target: T1, PSMA (Homo sapiens, UniProt Q04609); experiment: In vitro competition binding assay on LNCaP cells with ^18F-DCFPyL as radioligand
T1 construct: because it expresses PSMA endogenously and is commonly used to evaluate PSMA-targeting radiotracers; endogenous in cells; host or cells: LNCaP cells
T1 sequence (Q04609 whole entry): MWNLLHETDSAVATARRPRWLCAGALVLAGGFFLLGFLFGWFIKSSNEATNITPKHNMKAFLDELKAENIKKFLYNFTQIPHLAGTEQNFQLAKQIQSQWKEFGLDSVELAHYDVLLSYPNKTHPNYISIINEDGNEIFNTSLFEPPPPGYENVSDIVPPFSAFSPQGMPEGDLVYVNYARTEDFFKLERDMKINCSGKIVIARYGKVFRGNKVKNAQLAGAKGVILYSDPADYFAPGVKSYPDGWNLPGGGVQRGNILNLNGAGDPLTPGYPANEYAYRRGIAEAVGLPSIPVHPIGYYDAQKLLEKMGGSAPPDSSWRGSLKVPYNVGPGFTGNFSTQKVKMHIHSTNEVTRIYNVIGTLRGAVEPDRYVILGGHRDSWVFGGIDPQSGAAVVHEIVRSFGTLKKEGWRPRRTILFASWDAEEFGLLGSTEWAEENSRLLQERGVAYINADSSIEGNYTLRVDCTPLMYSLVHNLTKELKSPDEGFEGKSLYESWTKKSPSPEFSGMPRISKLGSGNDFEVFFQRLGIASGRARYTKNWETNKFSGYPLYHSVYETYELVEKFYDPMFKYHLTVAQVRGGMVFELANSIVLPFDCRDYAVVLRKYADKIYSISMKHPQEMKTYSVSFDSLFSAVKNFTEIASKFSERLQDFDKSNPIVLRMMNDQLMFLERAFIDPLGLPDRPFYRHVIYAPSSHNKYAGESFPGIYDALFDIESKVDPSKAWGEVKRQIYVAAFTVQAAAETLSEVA
Description: LNCaP cells were plated onto a 24-well poly-D-lysine coated plate for 48 h (400,000/well). […] Nonspecific binding was determined in the presence of 10 μM unlabeled DCFPyL. The assay mixtures were incubated for 1 h at 37°C with gentle agitation followed by 2 washes with cold HEPES buffered saline. A trypsin solution (0.25%, 400 μL) was then added to each well to harvest the cells. Radioactivity was measured by γ-counting, and Ki values were calculated using the “1 site—fit Ki” built-in model in Prism 7 (GraphPad).

[2] = 1 h blocked (coinjection of DCFPyL 0.5 mg)

For `C[N+](C)(Cc1cn(Cc2ccc(C(=O)NCCCC[C@H](NC(=O)N[C@@H](CCC(=O)O)C(=O)O)C(=O)O)cc2)nn1)C[B-](F)(F)F` [^18F-2], the “T/B (tumor-to-blood ratio)” value (LNCaP xenografts; 1 h after injection, unblocked) was 15.95 ± 1.37, the “T/K (tumor-to-kidney ratio)” value (LNCaP xenografts; 1 h after injection, unblocked) was 0.12 ± 0.04 and the “T/M (tumor-to-muscle ratio)” value (LNCaP xenografts; 1 h after injection, unblocked) was 37.30 ± 9.53. It also gave an adrenal uptake (LNCaP xenografts; 1 h after injection, unblocked) of 4.65 ± 1.75 %ID/g, a blood uptake (LNCaP xenografts; 1 h after injection, unblocked) of 0.52 ± 0.06 %ID/g and a bone uptake (LNCaP xenografts; 1 h after injection, unblocked) of 0.44 ± 0.09 %ID/g. The brain uptake (LNCaP xenografts; 1 h after injection, unblocked) was 0.04 ± 0.01 %ID/g, the fat uptake (LNCaP xenografts; 1 h after injection, unblocked) was 0.73 ± 0.26 %ID/g and the heart uptake (LNCaP xenografts; 1 h after injection, unblocked) was 0.33 ± 0.08 %ID/g. It also gave an intestine uptake (LNCaP xenografts; 1 h after injection, unblocked) of 0.33 ± 0.05 %ID/g, a kidney uptake (LNCaP xenografts; 1 h after injection, unblocked) of 71.70 ± 18.0 %ID/g and a liver uptake (LNCaP xenografts; 1 h after injection, unblocked) of 1.69 ± 0.19 %ID/g. The lung uptake (LNCaP xenografts; 1 h after injection, unblocked) was 1.39 ± 0.17 %ID/g, the muscle uptake (LNCaP xenografts; 1 h after injection, unblocked) was 0.23 ± 0.04 %ID/g and the pancreas uptake (LNCaP xenografts; 1 h after injection, unblocked) was 0.33 ± 0.05 %ID/g. The spleen uptake (LNCaP xenografts; 1 h after injection, unblocked) was 5.01 ± 0.64 %ID/g, the stomach uptake (LNCaP xenografts; 1 h after injection, unblocked) was 0.10 ± 0.03 %ID/g and the testes uptake (LNCaP xenografts; 1 h after injection, unblocked) was 0.67 ± 0.17 %ID/g. For the same molecule, the “tumor uptake compared with ^18F-DCFPyL” value (LNCaP xenografts; 1 h after injection, 1-way ANOVA, Dunnett test) was “No statistically significant differences”, the “T/B (tumor-to-blood ratio)” value (LNCaP xenografts; [2]) was 0.77 ± 0.48 and the “T/K (tumor-to-kidney ratio)” value (LNCaP xenografts; [2]) was 0.13 ± 0.02. For the same molecule, the “T/M (tumor-to-muscle ratio)” value (LNCaP xenografts; [2]) was 2.66 ± 1.60, the adrenal uptake (LNCaP xenografts; [2]) was 0.20 ± 0.05 %ID/g and the blood uptake (LNCaP xenografts; [2]) was 0.46 ± 0.24 %ID/g. For the same molecule, the bone uptake (LNCaP xenografts; [2]) was 0.30 ± 0.06 %ID/g, the brain uptake (LNCaP xenografts; [2]) was 0.02 ± 0.00 %ID/g and the fat uptake (LNCaP xenografts; [2]) was 0.06 ± 0.01 %ID/g. For the same molecule, the heart uptake (LNCaP xenografts; [2]) was 0.09 ± 0.02 %ID/g, the intestine uptake (LNCaP xenografts; [2]) was 0.31 ± 0.02 %ID/g and the kidney uptake (LNCaP xenografts; [2]) was 2.11 ± 0.19 %ID/g. The liver uptake (LNCaP xenografts; [2]) was 1.76 ± 0.17 %ID/g, the lung uptake (LNCaP xenografts; [2]) was 0.22 ± 0.03 %ID/g and the muscle uptake (LNCaP xenografts; [2]) was 0.12 ± 0.05 %ID/g. The pancreas uptake (LNCaP xenografts; [2]) was 0.06 ± 0.01 %ID/g, the spleen uptake (LNCaP xenografts; [2]) was 0.09 ± 0.03 %ID/g and the stomach uptake (LNCaP xenografts; [2]) was 0.06 ± 0.02 %ID/g. The testes uptake (LNCaP xenografts; [2]) was 0.08 ± 0.02 %ID/g, the tumor uptake (LNCaP xenografts; 1 h after injection, unblocked, listed as 2) was 8.3 ± 1.3 %ID/g and the tumor uptake (LNCaP xenografts; 1 h after injection, unblocked, listed as [18F]2) was 8.28 ± 1.25 %ID/g. It also gave a tumor uptake (LNCaP xenografts; [2]) of 0.27 ± 0.06 %ID/g, a logD at 2 min [1] of -4.26 ± 0.04 and a Ki (PSMA) of 11.8 ± 0.9 nM.
